In US8835429B2, “Pyrimidine compounds, their use as mTOR kinase and Pl3 kinase inhibitors, and their syntheses” (Wyeth LLC, priority 2009, dated 2014):

How the values were obtained:
PI3K-gamma = PI3K-gamma (Homo sapiens, UniProt P48736); assay: PI3K-gamma fluorescence polarization assay; type: biochemical; conditions: 20 μM PIP2, 25 μM ATP; read-out: PI3Kγ IC50
Description: The reaction buffer was 20 mM HEPES, pH 7.5, 2 mM MgCl2, 0.05% CHAPS; and 0.01% βME (added fresh). The stop/detection buffer was 100 mM HEPES, pH 7.5, 4 mM EDTA, 0.05% CHAPS; ATP 20 mM in water; PIP2 (diC8, Echelon, Salt Lake City Utah cat #P-4508) 1 mM in water (MW=856.5). The GST-GRP was 1.75 mg/mL or 1.4 mg/mL in 10% glycerol. The red detector (TAMRA) was 2.5 μM. Nunc 384-well black polypropylene fluorescent plates were used for PI3K assays.
The assay is run by placing 5 μL of diluted enzyme per well, then 5 μL of diluted compound (or 9.5 μL enzyme then 0.5 μL compound in DMSO) is added and mixed. Then, 10 μL substrate is added to start the reaction. The samples are incubated 30-60 minutes, then the reaction is stopped by adding 20 μL stop/detector mix. PI3K is diluted with reaction buffer (e.g., 5 μL or 7.5 μL PI3K into 620 μL reaction buffer), and 5 μL of diluted enzyme is used per well. A 5 μL portion of reaction buffer or of drug diluted in buffer (e.g., 4 μL/100 so final DMSO is 1% in reaction) is added to each. Pipetting up and down mixes the samples. Alternatively, the enzyme can be diluted to 1215 μL. In this case 9.8 μL is added per well and 0.2 μL compound is added in DMSO.
To prepare 1 mL of substrate solution, 955 μL reaction buffer, 40 μL PIP2, and 2.5 μL ATP are mixed. 10 μL of substrate is added to each well to start the reaction. […] The stop/detector mix is prepared by mixing 4 μL red detector and 1.6 μL or 2.0 μL GST-GRP with 1 mL stop buffer, which results in 10 nM probe and 70 nM GST-GRP. 20 μL of the stop/detector mix is added to each well to stop the reaction. The plates are read after 30-90 minutes keeping the red probe solutions dark. For the zero time point, stop/detector mix is added to the enzyme just before adding substrate. For an extra control, stop/detector mix is added to buffer (no enzyme) and substrate or to just buffer (no substrate). […] The recommended reaction has 0.06 μL per 20 μL (0.015 μg/20 μL) or 0.01125 μg/15 μL or 0.75 μg/mL.
Plates are read on machines with filters for TAMRA. The units are mP with no enzyme controls reading app 190-220 mP units. Fully active enzyme reduces fluorescence polarization down to 70-100 mP after 30 minutes. An active compound raises the mP values halfway to control or to 120-150 mP units.

PI3K-alpha = PI3K-alpha (Homo sapiens, UniProt P42336); assay: PI3K-alpha fluorescence polarization assay; type: biochemical; conditions: 20 μM PIP2, 25 μM ATP; read-out: PI3Kα IC50
Sequence of PI3K-alpha (P42336 whole entry, species assumed): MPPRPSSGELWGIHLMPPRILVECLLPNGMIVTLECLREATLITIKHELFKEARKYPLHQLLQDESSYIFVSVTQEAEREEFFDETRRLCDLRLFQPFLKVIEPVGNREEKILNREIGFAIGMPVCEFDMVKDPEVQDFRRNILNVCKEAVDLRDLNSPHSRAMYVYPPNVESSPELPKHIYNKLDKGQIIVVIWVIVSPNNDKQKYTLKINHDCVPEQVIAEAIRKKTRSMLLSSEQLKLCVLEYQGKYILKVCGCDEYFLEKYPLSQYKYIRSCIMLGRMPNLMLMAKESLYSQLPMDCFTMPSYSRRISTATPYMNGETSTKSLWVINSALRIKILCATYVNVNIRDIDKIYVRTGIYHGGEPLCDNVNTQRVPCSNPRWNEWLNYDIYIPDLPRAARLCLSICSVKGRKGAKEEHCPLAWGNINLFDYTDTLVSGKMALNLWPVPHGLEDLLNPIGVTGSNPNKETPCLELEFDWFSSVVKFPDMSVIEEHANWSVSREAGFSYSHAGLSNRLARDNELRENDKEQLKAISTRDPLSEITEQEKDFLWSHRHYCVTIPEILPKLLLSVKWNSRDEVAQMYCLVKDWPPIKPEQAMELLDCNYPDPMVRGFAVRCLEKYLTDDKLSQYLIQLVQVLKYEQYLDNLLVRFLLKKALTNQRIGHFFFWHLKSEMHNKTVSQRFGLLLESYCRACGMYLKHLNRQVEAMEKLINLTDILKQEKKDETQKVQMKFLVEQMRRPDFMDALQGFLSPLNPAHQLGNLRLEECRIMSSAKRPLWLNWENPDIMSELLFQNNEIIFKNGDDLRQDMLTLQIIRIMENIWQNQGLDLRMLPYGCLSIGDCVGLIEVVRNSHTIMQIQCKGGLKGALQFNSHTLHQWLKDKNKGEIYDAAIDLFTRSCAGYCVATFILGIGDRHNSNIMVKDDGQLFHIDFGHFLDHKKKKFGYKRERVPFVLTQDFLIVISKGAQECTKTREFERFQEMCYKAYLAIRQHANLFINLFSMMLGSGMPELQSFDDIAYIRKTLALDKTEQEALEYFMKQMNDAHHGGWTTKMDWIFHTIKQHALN
Sequence of PI3K-alpha (P27986 whole entry partner, species assumed): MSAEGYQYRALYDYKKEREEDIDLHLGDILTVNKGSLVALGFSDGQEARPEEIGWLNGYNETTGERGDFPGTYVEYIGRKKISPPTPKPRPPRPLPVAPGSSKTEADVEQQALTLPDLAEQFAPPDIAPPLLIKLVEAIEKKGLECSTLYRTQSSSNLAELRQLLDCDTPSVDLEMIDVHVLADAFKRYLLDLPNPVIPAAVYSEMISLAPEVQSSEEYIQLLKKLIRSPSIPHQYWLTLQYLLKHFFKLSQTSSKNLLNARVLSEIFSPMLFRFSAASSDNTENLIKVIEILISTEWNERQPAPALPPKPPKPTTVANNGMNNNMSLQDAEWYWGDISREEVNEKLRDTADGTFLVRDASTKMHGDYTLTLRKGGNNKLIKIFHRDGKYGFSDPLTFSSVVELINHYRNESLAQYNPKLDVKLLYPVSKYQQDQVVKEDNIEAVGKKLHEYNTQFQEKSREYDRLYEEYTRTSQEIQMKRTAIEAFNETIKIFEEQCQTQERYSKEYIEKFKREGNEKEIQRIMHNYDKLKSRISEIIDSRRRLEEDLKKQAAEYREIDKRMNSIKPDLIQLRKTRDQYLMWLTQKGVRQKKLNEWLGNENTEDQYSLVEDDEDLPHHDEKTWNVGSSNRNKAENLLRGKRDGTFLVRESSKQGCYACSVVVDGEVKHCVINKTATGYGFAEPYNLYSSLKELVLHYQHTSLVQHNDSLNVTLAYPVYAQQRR
In short: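 PIP2 (diC8) and ATP substrate with PI3K in 20 mM HEPES pH 7.5, 2 mM MgCl2, 0.05% CHAPS, 0.01% βME; 1% DMSO final; 30–60 min reaction. Stopped with EDTA plus GST-GRP (70 nM) and TAMRA probe (10 nM); FP (mP) read after 30–90 min, with no-enzyme controls.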

LNCap = assay: In vitro cell growth assay (MTS), LNCap; type: cell-based; conditions: LNCaP, 72 h, human prostate line, three days after drug treatment
mTOR = mTOR (Homo sapiens, UniProt P42345); assay: mTOR enzyme assay (DELFIA, purified FLAG-TOR, His6-S6K substrate); type: biochemical; design: FLAG; conditions: 100 μM ATP, 2 hours
Sequence of mTOR (P42345 1360-2549 limits assumed): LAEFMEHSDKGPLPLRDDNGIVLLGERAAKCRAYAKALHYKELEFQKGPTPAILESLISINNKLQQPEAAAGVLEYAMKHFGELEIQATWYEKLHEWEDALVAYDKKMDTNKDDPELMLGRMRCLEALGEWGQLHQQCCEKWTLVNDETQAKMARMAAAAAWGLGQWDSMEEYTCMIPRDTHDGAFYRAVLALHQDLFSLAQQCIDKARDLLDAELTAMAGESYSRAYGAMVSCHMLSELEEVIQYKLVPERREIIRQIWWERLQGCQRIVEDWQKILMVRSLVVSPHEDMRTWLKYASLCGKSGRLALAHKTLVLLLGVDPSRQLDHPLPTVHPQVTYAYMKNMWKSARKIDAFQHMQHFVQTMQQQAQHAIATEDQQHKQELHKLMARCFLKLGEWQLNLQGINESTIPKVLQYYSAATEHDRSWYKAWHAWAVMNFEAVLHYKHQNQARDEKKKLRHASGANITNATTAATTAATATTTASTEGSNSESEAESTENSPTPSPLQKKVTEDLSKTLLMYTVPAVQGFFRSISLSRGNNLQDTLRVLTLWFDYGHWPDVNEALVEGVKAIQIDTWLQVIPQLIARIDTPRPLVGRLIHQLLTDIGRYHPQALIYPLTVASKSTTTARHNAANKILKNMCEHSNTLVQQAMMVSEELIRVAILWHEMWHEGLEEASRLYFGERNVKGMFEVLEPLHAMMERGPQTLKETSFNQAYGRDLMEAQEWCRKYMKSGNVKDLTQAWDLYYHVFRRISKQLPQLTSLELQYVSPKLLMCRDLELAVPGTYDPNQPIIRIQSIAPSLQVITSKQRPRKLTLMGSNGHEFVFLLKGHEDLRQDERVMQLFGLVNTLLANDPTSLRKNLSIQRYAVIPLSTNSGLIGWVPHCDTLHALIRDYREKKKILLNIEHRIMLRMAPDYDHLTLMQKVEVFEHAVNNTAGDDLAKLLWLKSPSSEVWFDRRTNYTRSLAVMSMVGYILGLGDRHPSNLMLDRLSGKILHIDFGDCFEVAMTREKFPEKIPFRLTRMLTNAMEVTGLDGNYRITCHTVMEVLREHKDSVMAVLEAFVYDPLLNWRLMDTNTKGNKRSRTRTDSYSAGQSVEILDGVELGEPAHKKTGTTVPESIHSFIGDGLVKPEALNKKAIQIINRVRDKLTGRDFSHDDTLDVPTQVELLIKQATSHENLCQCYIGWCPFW

MDA468 = assay: In vitro cell growth assay (MTS), MDA468; type: cell-based; conditions: 72 h, human breast line MDA468, three days after drug treatment, read-out: MDA IC50

Sequence of PI3K-gamma (P48736 whole entry, species assumed): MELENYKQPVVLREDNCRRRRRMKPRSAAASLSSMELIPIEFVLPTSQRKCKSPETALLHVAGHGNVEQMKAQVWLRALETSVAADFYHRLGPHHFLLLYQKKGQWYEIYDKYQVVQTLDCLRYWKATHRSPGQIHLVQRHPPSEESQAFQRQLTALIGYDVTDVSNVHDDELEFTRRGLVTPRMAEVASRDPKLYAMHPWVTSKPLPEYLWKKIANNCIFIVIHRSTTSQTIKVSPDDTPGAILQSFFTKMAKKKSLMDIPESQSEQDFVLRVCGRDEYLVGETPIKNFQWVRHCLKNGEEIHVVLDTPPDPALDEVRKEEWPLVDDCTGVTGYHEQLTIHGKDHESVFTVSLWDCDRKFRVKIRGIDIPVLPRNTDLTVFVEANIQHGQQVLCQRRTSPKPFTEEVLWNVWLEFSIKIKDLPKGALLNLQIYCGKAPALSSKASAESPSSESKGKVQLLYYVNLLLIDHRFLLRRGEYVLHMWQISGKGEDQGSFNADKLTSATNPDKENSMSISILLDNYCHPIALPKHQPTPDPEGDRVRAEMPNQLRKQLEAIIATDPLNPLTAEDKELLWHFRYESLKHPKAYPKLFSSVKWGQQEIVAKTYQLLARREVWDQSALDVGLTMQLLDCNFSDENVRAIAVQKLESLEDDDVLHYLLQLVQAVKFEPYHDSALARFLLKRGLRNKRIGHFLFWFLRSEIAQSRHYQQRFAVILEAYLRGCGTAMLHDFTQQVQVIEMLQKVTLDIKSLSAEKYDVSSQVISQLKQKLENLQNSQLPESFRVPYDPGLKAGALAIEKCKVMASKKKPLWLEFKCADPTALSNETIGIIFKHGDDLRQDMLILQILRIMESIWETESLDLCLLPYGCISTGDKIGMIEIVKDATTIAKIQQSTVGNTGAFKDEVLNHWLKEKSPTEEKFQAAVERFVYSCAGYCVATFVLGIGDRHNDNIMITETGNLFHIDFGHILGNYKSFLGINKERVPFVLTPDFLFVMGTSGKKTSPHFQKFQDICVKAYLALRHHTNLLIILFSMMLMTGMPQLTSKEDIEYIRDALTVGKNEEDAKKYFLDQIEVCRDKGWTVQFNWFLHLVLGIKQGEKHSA

Structure (SMILES)	IC50 (PI3K-gamma)	IC50 (PI3K-alpha)	IC50 (LNCap)	IC50 (mTOR)	IC50 (MDA468)
CN1CCN(c2ccc(NC(=O)Nc3ccc(-c4nc(N5C6CCC5COC6)cc(N5C[C@@H]6C[C@H]5CO6)n4)cc3)cc2)CC1 [1-[4-(4-methylpiperazin-1-yl)phenyl]-3-(4-{4-[(1S,4S)-2-oxa-5-azabicyclo[2.2.1]hept-5-yl]-6-(3-oxa-8-azabicyclo[3.2.1]oct-8-yl)pyrimidin-2-yl}phenyl)urea]	≥ 10 µM	1.78 µM	0.01 µM	0.00975 µM	0.018 µM
CC(C)Nc1cc(N2C3COCC2COC3)nc(-c2ccc(NC(=O)Nc3ccncc3)cc2)n1 [1-{4-[4-(3,7-dioxa-9-azabicyclo[3.3.1]non-9-yl)-6-(isopropylamino)pyrimidin-2-yl]phenyl}-3-pyridin-4-ylurea]	9.24 µM	1.52 µM	0.28 µM	0.005 µM	0.4 µM
C[C@@H]1CN(c2cc(N3C4CCC3COC4)nc(-c3ccc(NC(=O)Nc4ccc(N5CCN(C)CC5)nc4)cc3)n2)C[C@H](C)O1 [1-(4-{4-[(2R,6S)-2,6-dimethylmorpholin-4-yl]-6-(3-oxa-8-azabicyclo[3.2.1]oct-8-yl)pyrimidin-2-yl}phenyl)-3-[6-(4-methylpiperazin-1-yl)pyridin-3-yl]urea]	15.3 µM	1.69 µM	0.1 µM	0.0152 µM	0.2 µM
O=C(Nc1ccc(-c2nc(N3C4CCC3COC4)c(Cl)c(N3C4CCC3COC4)n2)cc1)Nc1cccnc1 [1-[4-(5-chloro-4,6-di-3-oxa-8-azabicyclo[3.2.1]oct-8-ylpyrimidin-2-yl)phenyl]-3-pyridin-3-ylurea]	0.932 µM	0.922 µM	0.048 µM	0.000655 µM	0.22 µM
CC(C)Nc1cc(N2C3COCC2COC3)nc(-c2ccc(NC(=O)Nc3ccc(N4CCN(C)CC4)cc3)cc2)n1 [1-{4-[4-(3,7-dioxa-9-azabicyclo[3.3.1]non-9-yl)-6-(isopropylamino)pyrimidin-2-yl]phenyl}-3-[4-(4-methylpiperazin-1-yl)phenyl]urea]	7.89 µM	1.51 µM	0.28 µM	0.0145 µM	0.32 µM
O=C(Nc1ccc(-c2nc(N3C4CCC3COC4)cc(N3C4CCC3COC4)n2)cc1)Nc1cccnc1 [1-[4-(4,6-di-3-oxa-8-azabicyclo[3.2.1]oct-8-ylpyrimidin-2-yl)phenyl]-3-pyridin-3-ylurea]	4.49 µM	1.13 µM	0.0008 µM	0.00058 µM	0.005 µM
C[C@@H]1COCCN1c1cc(N2C3CCC2COC3)nc(-c2ccc(NC(=O)Nc3ccncc3)cc2)n1 [1-(4-{4-[(3R)-3-methylmorpholin-4-yl]-6-(3-oxa-8-azabicyclo[3.2.1]oct-8-yl)pyrimidin-2-yl}phenyl)-3-pyridin-4-ylurea]	0.778 µM	0.314 µM	0.001 µM	0.000645 µM	0.005 µM
CN1CCN(c2ccc(NC(=O)Nc3ccc(-c4nc(NCCS(C)(=O)=O)cc(N5C6CCC5COC6)n4)cc3)cc2)CC1 [1-[4-(4-methylpiperazin-1-yl)phenyl]-3-{4-[4-{[2-(methylsulfonyl)ethyl]amino}-6-(3-oxa-8-azabicyclo[3.2.1]oct-8-yl)pyrimidin-2-yl]phenyl}urea]	≥ 10 µM	1.84 µM	0.017 µM	0.0145 µM	0.019 µM
C[C@@H]1COCCN1c1cc(N2C3CCC2COC3)nc(-c2ccc(NC(=O)Nc3ccc(N4CCN(C)CC4)nc3)cc2)n1 [1-(4-{4-[(3R)-3-methylmorpholin-4-yl]-6-(3-oxa-8-azabicyclo[3.2.1]oct-8-yl)pyrimidin-2-yl}phenyl)-3-[6-(4-methylpiperazin-1-yl)pyridin-3-yl]urea]	2.98 µM	1.1 µM	0.0035 µM	0.0025 µM	0.008 µM
CS(=O)(=O)CCNc1cc(N2C3CCC2COC3)nc(-c2ccc(NC(=O)Nc3ccncc3)cc2)n1 [1-{4-[4-{[2-(methylsulfonyl)ethyl]amino}-6-(3-oxa-8-azabicyclo[3.2.1]oct-8-yl)pyrimidin-2-yl]phenyl}-3-pyridin-4-ylurea]	10.8 µM	1.3 µM	1 µM	0.00405 µM	0.4 µM
O=C(Nc1ccncc1)Nc1ccc(-c2nc(C3CCOCC3)cc(N3C4CCC3COC4)n2)cc1 [1-{4-[4-(3-oxa-8-azabicyclo[3.2.1]oct-8-yl)-6-(tetrahydro-2H-pyran-4-yl)pyrimidin-2-yl]phenyl}-3-pyridin-4-ylurea]	7.98 µM	1.78 µM	≤ 0.0008 µM	0.000365 µM	0.004 µM
CN1CCN(c2ccc(NC(=O)Nc3ccc(-c4nc(NC5CCOCC5)cc(N5C6CCC5COC6)n4)cc3)cc2)CC1 [1-[4-(4-methylpiperazin-1-yl)phenyl]-3-{4-[4-(3-oxa-8-azabicyclo[3.2.1]oct-8-yl)-6-(tetrahydro-2H-pyran-4-ylamino)pyrimidin-2-yl]phenyl}urea]	9.23 µM	2.26 µM	0.007 µM	0.0075 µM	0.01 µM
CN(C)CCOc1ccc(NC(=O)Nc2ccc(-c3nc(NC4CCOCC4)cc(N4C5CCC4COC5)n3)cc2)cc1 [1-{4-[2-(dimethylamino)ethoxy]phenyl}-3-{4-[4-(3-oxa-8-azabicyclo[3.2.1]oct-8-yl)-6-(tetrahydro-2H-pyran-4-ylamino)pyrimidin-2-yl]phenyl}urea]	4.54 µM	1.11 µM	0.03 µM	0.0076 µM	0.048 µM
CN1CCN(Cc2ccc(NC(=O)Nc3ccc(-c4nc(NC5CCOCC5)cc(N5C6CCC5COC6)n4)cc3)cc2)CC1 [1-{4-[(4-methylpiperazin-1-yl)methyl]phenyl}-3-{4-[4-(3-oxa-8-azabicyclo[3.2.1]oct-8-yl)-6-(tetrahydro-2H-pyran-4-ylamino)pyrimidin-2-yl]phenyl}urea]	2.18 µM	0.931 µM	0.04 µM	0.0063 µM	0.065 µM
CN1CCN(C(=O)c2ccc(NC(=O)Nc3ccc(-c4nc(C5CCOCC5)cc(N5C6CCC5COC6)n4)cc3)cc2)CC1 [1-{4-[(4-methylpiperazin-1-yl)carbonyl]phenyl}-3-{4-[4-(3-oxa-8-azabicyclo[3.2.1]oct-8-yl)-6-(tetrahydro-2H-pyran-4-yl)pyrimidin-2-yl]phenyl}urea]	3.05 µM	0.23 µM	≤ 0.0008 µM	0.00044 µM	0.0008 µM
C[C@@H]1CN(c2cc(N3C4CCC3COC4)nc(-c3ccc(NC(=O)Nc4ccc(N5CCN(C)CC5)cc4)cc3)n2)C[C@H](C)O1 [1-(4-{4-[(2R,6S)-2,6-dimethylmorpholin-4-yl]-6-(3-oxa-8-azabicyclo[3.2.1]oct-8-yl)pyrimidin-2-yl}phenyl)-3-[4-(4-methylpiperazin-1-yl)phenyl]urea]	6.44 µM	1.55 µM	0.03 µM	0.0044 µM	0.13 µM
CN(C)CCOc1ccc(NC(=O)Nc2ccc(-c3nc(C4CCOCC4)cc(N4C5CCC4COC5)n3)cc2)cc1 [1-{4-[2-(dimethylamino)ethoxy]phenyl}-3-{4-[4-(3-oxa-8-azabicyclo[3.2.1]oct-8-yl)-6-(tetrahydro-2H-pyran-4-yl)pyrimidin-2-yl]phenyl}urea]	7.3 µM	1.46 µM	0.004 µM	0.00115 µM	0.011 µM
